Measurements: patent US20250027085A1, “COMPOSITIONS AND METHODS FOR TREATING ALZHEIMER'S DISEASE UTILIZING A TRANSCRIPTIONAL MASTER REGULATOR OF THE RETROMER COMPLEX” (THE TRUSTEES OF COLUMBIA UNIVERSITY IN THE CITY OF NEW YORK, priority 2022, published 2025)
“Also recorded” adds a separate entry of the source.

How the values were obtained:
rat hippocampal neurons [1] = assay: RNA-seq of Aβ42-challenged neurons with dovitinib co-treatment; format: cell-based
Description: Basal expression levels were measured in vehicle-treated cells. DEGs identified in Aβ42 condition are compared against their expression values in neurons co-treated with dovinitib. Individual datapoints show fold-changes over baseline (log2-transformed) of n=2 biological replicates. Aβ42 and dovitinib were applied for 24 hours before RNA collection. […] FGF, fibroblast growth factor.
Prior to RNA collection, neuronal cultures were washed with ice-cold HBSS (Thermo Fischer) and lysed with TRIzol reagent (#15596026, Thermo Fisher) by scrapping. The reaction was allowed to proceed on ice for 5 minutes, at which point samples were centrifuged at 12,000 g and 4° C. and supernatants transferred to new tubes before a 1:1 (v/v) dilution with molecular biology-grade 100% ethanol (Millipore Sigma). The RNA extraction protocol was continued using the Direct-zol RNA MicroPrep kit (Zymo Research), in accordance to manufacturer's instructions, and included an on-column DNA digestion step with DNase I. RNA was eluted in 30 μl of water. RNA-seq library preparation and sequencing reactions were conducted at GENEWIZ, Inc. (South Plainfield, NJ, USA). RNA sequencing libraries were prepared using the NEBNext Ultra RNA Library Prep Kit for Illumina following manufacturer's instructions (NEB). Briefly, mRNAs were first enriched with oligo(dT) beads. […] The sequencing libraries were validated on an Agilent TapeStation (Agilent Technologies) and quantified using a Qubit 2.0 Fluorometer (Life Technologies) as well as quantitative PCR (KAPA Biosystems). […] RNA-seq sequencing data were processed and analyzed within the Galaxy web platform, using the public server at usegalaxy.org. First, library adapters and low-quality reads were removed using Trimmomatic (version 0.38) with the following settings: initial ILLUMINACLIP step to cut adapters and other Illumina-specific sequences from the reads, seedMismatches=2, palindromeClipThreshold=30, simpleClipThreshold=10, minAdapterLength=8, keepBothReads=True, AVGQUAL >20, SLIDINGWINDOW: windowSize=4 and requiredQuality=20, and MINLEN=50. […]

neurons = conditions: Rodriguez et al., 2021; cited from earlier work
[2] = Schafer et al., 2016; cited from earlier work
[3] = system: CREB3L2-ATF4 heterodimers; assay: Proximity ligation assay (PLA) of axonal CREB3L2-ATF4 heterodimers; format: cell-based, rat; conditions: emetine 100 nM to axons, last 60 minutes of 12-hour Aβ42 protocol
Description: Hippocampi were dissected from embryonic day (E) 16-18 rat embryos obtained from pregnant Sprague-Dawley dams (Envigo). All animal procedures were approved by the Institutional Animal Care and Use Committee at Columbia University. Cell dissociation was performed using TripLE Express. Neurons (50,000-60,000 per microfluidic chamber) were plated on 0.1 mg ml^-1 poly-D-lysine (Millipore Sigma) and 2 μg ml^-1 laminin (Bio-Techne) coated substrates and grown in Neurobasal supplemented with 10% fetal bovine serum, 2 mM L-glutamine, 1 mM sodium pyruvate, and antibiotics (50 U ml^-1 penicillin-streptomycin). Tripartite microfluidic chambers were produced with Dow Corning Sylgard 184 Silicone Encapsulant Clear Kit (10:1 mix ratio; Ellsworth Adhesives) cured at […] for at least 4 hours following published protocols (Park et al. 2006; Desai et al. 2009). Chamber design incorporated two sets of 200-μm-long microgroove barriers to exclude crossing of cell bodies and dendrites (Taylor et al. 2005; […] et al. 2009). After 24 hours, medium was changed to Neurobasal containing 1×B27 and 2 mM L-glutamine. Subsequent medium changes (half volumes) were performed at DIV4 and thereafter every 3-5 days. To prevent glial cell proliferation, medium changes included 5-flurodeoxyuridine and uridine (final concentration […]; Millipore Sigma) after DIV4. […]

[4] = target: T1, GFP-tagged H. sapiens CREB3L2, full-length form (UniProt Q70SY1)
T1 sequence: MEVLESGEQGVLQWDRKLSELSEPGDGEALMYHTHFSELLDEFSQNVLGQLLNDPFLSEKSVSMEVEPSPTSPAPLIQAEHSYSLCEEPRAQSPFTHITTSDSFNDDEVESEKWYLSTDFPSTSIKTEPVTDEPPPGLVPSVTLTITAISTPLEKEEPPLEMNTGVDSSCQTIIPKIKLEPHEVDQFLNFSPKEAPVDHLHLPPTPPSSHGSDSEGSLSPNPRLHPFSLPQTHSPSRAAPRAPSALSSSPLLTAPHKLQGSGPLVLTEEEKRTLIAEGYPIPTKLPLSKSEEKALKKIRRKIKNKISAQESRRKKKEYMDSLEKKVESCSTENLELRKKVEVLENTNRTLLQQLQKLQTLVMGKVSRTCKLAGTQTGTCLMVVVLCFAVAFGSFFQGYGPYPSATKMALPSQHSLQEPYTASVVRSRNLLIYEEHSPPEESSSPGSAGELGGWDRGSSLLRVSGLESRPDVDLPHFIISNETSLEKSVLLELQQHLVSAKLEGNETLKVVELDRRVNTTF

[5] = target: GFP-tagged CREB3L2-S1P- (full-length form with mutated S1P site) (UniProt Q70SY1)
rat hippocampal neurons [6] = assay: Neuronal viability (RealTime-Glo MT) after 48-hour Aβ42 stimulation; format: cell-based; conditions: lentiviral delivery at DIV1; Aβ42 750 nM 48 hours; relative to wild-type neurons; Aβ42/vehicle ratios
Description: Plots show individual measurements and mean±SEM of n=3 biological replicates. For each background, data are presented as Aβ42/vehicle ratios. ATF4 aZIP: *P-value=0.0167; CREB3L2 aZIP: *P-value=0.0137; unpaired t-tests.
Specific aZIPs sequences were synthesized by Genewiz. CREB3L2 aZIP: 5′-[…]-3′. (SEQ ID NO: 68) ATF4 aZIP: 5′-[…]-3′. […] Lentiviral particles were delivered at DIV1, 24 hours post-dissection. Neuronal cultures were allowed to mature until DIV15 and treated with Aβ42 at 750 nM for 48 hours. Cell viability was assayed using RealTime-Glo MT Cell Viability Assay (Promega) following manufacturer's guidelines; reaction was allowed to proceed for 1 hour before taking luminescence readings (SpectraMax iD5, Molecular Devices). Also see FIGS. 34A-34D.

CN1CCN(c2ccc3nc(-c4c(N)c5c(F)cccc5[nH]c4=O)[nH]c3c2)CC1 [dovitinib]
number of genes surpassing 0.25 differences in head-to-head comparisons (rat hippocampal neurons [1]; 24-hour Aβ42 + dovitinib vs Aβ42): 30 | number of Aβ42 DEGs (of 203) showing corrective shifts 0.10 with dovitinib co-treatment (rat hippocampal neurons [1]; 24-hour Aβ42 + dovitinib, log fold-change, n=2): 131 | Vgf log fold-change [Aβ42+dovitinib] (rat hippocampal neurons [1]; 24 hours, Aβ42 alone log fold-change 0.57, over vehicle baseline): 0.07 | toxicity to neurons (neurons): non-toxic | crossing of the blood-brain barrier [2]: can cross

CC[C@H]1CN2CCc3cc(OC)c(OC)cc3[C@@H]2C[C@@H]1C[C@H]1NCCc2cc(OC)c(OC)cc21 [emetine]
Aβ42-induced upregulation of axonal CREB3L2-ATF4 heterodimers (PLA) [3]: completely prevented; also recorded: limited their association in axons to control levels

site 1 protease (S1P)
CREB3L2 proteolytic cleavage (western blot, coexpression in HEK293) [4]: Coexpression of S2P, but not S1P, together with full-length GFP-CREB3L2 in HEK293 cells is sufficient to promote the activation of CREB3L2

site 2 protease (S2P)
CREB3L2 proteolytic cleavage (western blot, coexpression in HEK293) [4]: Coexpression of S2P, but not S1P, together with full-length GFP-CREB3L2 in HEK293 cells is sufficient to promote the activation of CREB3L2 | CREB3L2 proteolytic cleavage (western blot, coexpression in HEK293) [5]: Preventing S1P processing by eliminating its cleavage site does not impede S2P-mediated processing

B1: CREB3L2 aZIP: dominant-negative acidic-ZIP peptide targeting CREB3L2, encoded by nucleotide SEQ ID NO: 68, delivered by lentivirus (protein)
peptide: MDYKDDDDKHMASMTGGQQMGRDPDLEQRAEELARENEELEKEAEELEQELAELRKKVEVLENTNRTLLQQLQKLQTLVMGKVSRTCKLAGTQTGTCLMVVVL
cell viability in neurons exposed to Aβ42 (rat hippocampal neurons [6]): significantly improved

B2: ATF4 aZIP: dominant-negative acidic-ZIP peptide targeting ATF4, encoded by nucleotide SEQ ID NO: 69, delivered by lentivirus (protein)
peptide: MDYKDDDDKHMASMTGGQQMGRDPDLEQRAEELARENEELEKEAEELEQELAELTGECKELEKKNEALKEKADSLAKEIQYLKDLIEEVRKARGKKRVP
cell viability in neurons exposed to Aβ42 (rat hippocampal neurons [6]): significantly improved
